Holding throughout (assay): relative viability (nuclei count vs DMSO), 5 days (fraction); higher = more cells survive
Compound in the assay “Selisistat + Navitoclax”: C1CC(C2=C(C1)C3=C(N2)C=CC(=C3)Cl)C(=O)N [Selisistat] + CC1(C)CCC(c2ccc(Cl)cc2)=C(CN2CCN(c3ccc(C(=O)NS(=O)(=O)c4ccc(N[C@H](CCN5CCOCC5)CSc5ccccc5)c(S(=O)(=O)C(F)(F)F)c4)cc3)CC2)C1 [Navitoclax] (partner 0.5 µM)
The procedure, abridged: (§1)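 The day after seeding in 1536-well plates, lung cancer cell lines were treated by pin tool with a single drug, or with a fixed anchor-drug dose together with five library-drug doses (not always all listed) in √10 steps. After 5 days, a combined fix-and-stain solution (final 0.05% Triton X-100, 1% formaldehyde, 1 ug/ml Hoechst) was added. Nuclei counted on 4× images gave relative viability as treated counts over vehicle counts, reported as the median of duplicate plates.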

Compound in the assay “Selisistat + OSI-027”: C1CC(C2=C(C1)C3=C(N2)C=CC(=C3)Cl)C(=O)N [Selisistat] + COc1cccc2cc(-c3nc([C@H]4CC[C@H](C(=O)O)CC4)n4ncnc(N)c34)[nH]c12 [OSI-027] (partner 0.5 µM)
A digest of the protocol:
as §1

Compound in the assay “Serdemetan + Tozasertib”: c1ccc2c(CCNc3ccc(Nc4ccncc4)cc3)c[nH]c2c1 [Serdemetan] + Cc1cc(Nc2cc(N3CCN(C)CC3)nc(Sc3ccc(NC(=O)C4CC4)cc3)n2)n[nH]1 [Tozasertib] (partner 0.1 µM)
A digest of the protocol: as §1

Compound in the assay “Serdemetan + Linsitinib”: c1ccc2c(CCNc3ccc(Nc4ccncc4)cc3)c[nH]c2c1 [Serdemetan] + C[C@]1(O)C[C@@H](c2nc(-c3ccc4ccc(-c5ccccc5)nc4c3)c3c(N)nccn32)C1 [Linsitinib] (partner 1 µM)
The procedure, abridged: as §1

This note sets out measurements from the supplement of paper PMC10307832.

For UMC-11, the relative viability was 0.296 with Selisistat + Navitoclax (first compound 0.4 µM); 0.294 in the assay with Selisistat + Navitoclax (first compound 1.265 µM); 0.276 with Selisistat + Navitoclax (first compound 4 µM); 0.316 with Selisistat + Navitoclax (first compound 12.65 µM); 0.332 with Selisistat + Navitoclax (first compound 40 µM); 0.498 in the assay with Selisistat + OSI-027 (first compound 0.4 µM). For the same cell line, the relative viability with Selisistat + OSI-027 (first compound 1.265 µM) came out at 0.398; with Selisistat + OSI-027 (first compound 4 µM), 0.385; with Selisistat + OSI-027 (first compound 12.65 µM), 0.476; with Selisistat + OSI-027 (first compound 40 µM), 0.46; with Serdemetan + Tozasertib (first compound 0.04 µM), 0.224; in the assay with Serdemetan + Tozasertib (first compound 0.1265 µM) it was 0.199. In addition, the relative viability with Serdemetan + Tozasertib (first compound 0.4 µM) came to 0.208; with Serdemetan + Tozasertib (first compound 4 µM), 0.233; in the assay with Serdemetan + Linsitinib (first compound 0.04 µM), 1.03; with Serdemetan + Linsitinib (first compound 0.1265 µM), 0.902; in the assay with Serdemetan + Linsitinib (first compound 0.4 µM), 0.873; with Serdemetan + Linsitinib (first compound 1.265 µM) it was 0.701. In the assay with Serdemetan + Linsitinib (first compound 4 µM), the relative viability was found to be 0.828.
